Laboratory results from patent US7615564B2, “Isoquinoline derivatives having kinasae inhibitory activity and drugs containing the same” (Kirin Beer Kabushiki Kaisha, priority 2002, dated 2009).
Marks after values point to notes of the source that are not given here.

Experiments:
[1] = biological target: T1, Recombinant Rho kinase (fused protein composed of bovine Rho kinase catalytic region and glutathione S-transferase) (Bos taurus, UniProt Q28021); experiment: Rho kinase inhibitory activity (phosphorylation of S6 231-239 substrate with γ32P-ATP); type: biochemical; conditions: concentration inhibiting substrate phosphorylation by 50%
T1 construct: fused protein composed of bovine Rho kinase catalytic region and glutathione S-transferase; glutathione S-transferase (GST); made in house; host or cells: insect cells infected with baculovirus
T1 sequence (Q28021 92-354 limits assumed): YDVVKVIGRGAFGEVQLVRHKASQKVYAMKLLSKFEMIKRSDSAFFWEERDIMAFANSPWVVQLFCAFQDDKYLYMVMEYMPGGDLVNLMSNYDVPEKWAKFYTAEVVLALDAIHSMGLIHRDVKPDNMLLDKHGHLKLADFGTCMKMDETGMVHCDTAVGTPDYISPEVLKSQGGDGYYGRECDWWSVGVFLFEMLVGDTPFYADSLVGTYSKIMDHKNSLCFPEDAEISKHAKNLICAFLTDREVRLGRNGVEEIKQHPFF
Experimental: This permits the substrate to be labeled with the radioisotope.
Thereafter, the substrate was adsorbed to a filter paper. ATP was washed away with a phosphoric acid solution, and the amount of the phosphorylated substrate was then measured with a liquid scintillation counter.

[2] = system: Mouse-derived CCR2 overexpressing human-derived histiocyte lymphoma (U937/CCR2); experiment: Leukocyte migration inhibitory activity (MCP-1 induced migration, CHEMOTAXICELL); type: cell-based; conditions: U-937, test compound concentration 10 μg/ml, MCP-1 ligand, migration 1 hr
Experimental: Mouse-derived CCR2 overexpressing human-derived histiocyte lymphoma (U937/CCR2), was suspended in a 0.1% BSA-containing RPMI 1640 medium, to which a test compound had been added (5×10^6/ml), and the suspension was incubated for 20 min. A chemical solution (500 μl) (0.1% BSA-containing RPMI 1640 medium DMSO 1%), to which an MCP-1 ligand (1 μM) and the test compound had been added, was added to a 24-well plate. CHEMOTAXICELL was put thereon, and 200 μl of the cell suspension was added to the top layer, followed by migration under a 5% CO2 atmosphere at 37° C. for one hr. The number of cells, which had migrated to the lower chamber, was counted with a particle count analyzer (CDA-500, SYSMEX CORPORATION), and the percentage migration inhibition was calculated by the following equation: Migration inhibition (%)=(1−number of migrated cells in the presence of test compound/number of migrated cells in the absence of test compound)×100

[3] = system: anti-GBM nephritis model using WKY rats; experiment: Proteinuria amelioration activity for anti-GBM nephritis model using WKY rats; type: in vivo, rat; conditions: mean ± standard error, 6 rats; for Number of cells (ED-1 positive cells per glomerulus): hydrochloride 30 mg/kg oral twice a day, kidney four days after antibody
Experimental: An anti-GBM antibody produced by immunizing domestic rabbits with a rat-derived GBM fraction was caudointravenously administered to WKY male rats of 8 weeks old to induce nephritis. For 3 days from the time 24 hr after the administration of the antibody, a solution of each of the hydrochlorides prepared in Examples 45 and 46 in purified water was orally administered at a dose of 30 mg/kg twice a day. Three days after the administration of the antibody, twenty-four-hours urine was collected to determine the protein level of urine.
Four days after the administration of the antibody, the rats were sacrificed by exsanguination, and the kidney was then harvested and was fixed in 4% paraformaldehyde to prepare a specimen for staining. Next, the specimen thus obtained was immunostained using a mouse-anti-rat macrophage monoclonal antibody (ED-1). The number of ED-1 positive cells per glomerulus was counted.
Likewise, an anti-GBM antibody was caudointravenously administered to WKY male rats of 7 weeks old to induce nephritis. For 4 weeks from the time 24 hr after the administration of the antibody, a solution of the hydrochloride prepared in each of Examples 45 and 46 in purified water was orally administered at a dose of 30 mg/kg twice a day. Four weeks after the administration of the antibody, twenty-four-hours urine was collected to determine the protein level of urine.

Rho kinase = biological target: T2, Rho kinase (Bos taurus, UniProt Q28021); experiment: Ex vivo experiment: Rho kinase inhibition by serum of orally dosed SD rats; type: in vivo, rat; conditions: hydrochloride 30 mg/kg oral, SD rats (N=4), serum diluted 8 times
T2 construct: fused protein composed of bovine Rho kinase catalytic region and glutathione S-transferase; glutathione S-transferase (GST); made in house; host or cells: insect cells infected with baculovirus
T2 sequence (Q28021 6-553 limits assumed): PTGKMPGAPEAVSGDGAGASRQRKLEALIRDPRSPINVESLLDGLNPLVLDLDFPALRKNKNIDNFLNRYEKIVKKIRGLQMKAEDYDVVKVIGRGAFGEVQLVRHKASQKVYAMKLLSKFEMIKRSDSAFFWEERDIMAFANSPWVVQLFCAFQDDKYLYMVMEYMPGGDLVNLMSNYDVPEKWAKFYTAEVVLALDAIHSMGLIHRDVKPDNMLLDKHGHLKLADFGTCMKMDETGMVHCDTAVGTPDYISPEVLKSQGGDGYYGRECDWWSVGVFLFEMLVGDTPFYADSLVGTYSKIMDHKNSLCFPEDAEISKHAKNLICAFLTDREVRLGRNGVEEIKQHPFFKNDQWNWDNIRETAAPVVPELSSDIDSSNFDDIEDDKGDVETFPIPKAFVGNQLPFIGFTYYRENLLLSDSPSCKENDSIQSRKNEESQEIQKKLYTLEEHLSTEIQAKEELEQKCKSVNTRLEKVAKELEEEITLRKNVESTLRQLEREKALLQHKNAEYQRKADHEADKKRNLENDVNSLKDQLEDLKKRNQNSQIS
Experimental: Water or a solution of a hydrochloride salt of a test compound (30 mg/kg) in physiological saline was orally administered to SD rats (N=4). […] The serum was diluted 8 times with physiological saline and was added to Rho kinase, substrate, and labeled ATP according to the method described in Pharmacological Test Example 1, and the amount of the phosphorylated substrate was determined. Rho kinase inhibition was calculated according to the following equation: Inhibition (%)=(1−amount of substrate in the case of test compound administration/amount of substrate in the case of water administration)×100

[4] = system: Spontaneously hypertensive male rats (SHR); experiment: Blood pressure depression activity in spontaneously hypertensive rats; type: in vivo, rat; conditions: hydrochloride 30 mg/kg oral; systolic pressure 3 to 4 hr after administration; ± standard error, four SHRs
Experimental: Spontaneously hypertensive male rats (SHR, Charles River Japan, Inc.) of 15 weeks old were provided. A solution of a hydrochloride of a compound of Example 45 or 46 (30 mg/kg) in purified water was orally administered to the rats. The systolic pressure of SHR was measured immediately before the administration of the test compound and 3 to 4 hr after the administration of the test compound. The percentage blood pressure depression was calculated by the following equation: Blood pressure depression (%)={(blood pressure before administration of test compound−blood pressure after administration of test compound)/blood pressure before administration of test compound}×100
The blood pressure depression was expressed in terms of the percentage blood pressure depression and the standard error for four SHRs.

[5] = hydrochloride 30 mg/kg oral twice a day for 4 weeks, 24-hr urine four weeks after antibody
[6] = hydrochloride 30 mg/kg oral twice a day for 3 days, 24-hr urine three days after antibody
[7] = blood collection 4 hr after administration

Row | SMILES | IC50 [1] [nM] | inhibition at 10 µg/mL [2] [%] | Protein level of urine [3, 5] | Protein level of urine [3, 6] | Number of cells (ED-1 positive cells per glomerulus) [3] | Inhibition (%) (Rho kinase; [7]) | Blood pressure depression (%) [4] [%] | Inhibition (%) (Rho kinase; blood collected 3 hr after administration)
1 | Nc1cccc(CN2CC[C@@H](Nc3cccc4cnccc34)C2)c1 [Example 46, (3R)-N5-[1-(3-Aminobenzyl)tetrahydro-1H-3-pyrrolyl]-5-isoquinolineamine] | 23 | 104 | 327.6 ± 55.2 mg/kg, body weight | 73.6 ± 9.1 mg/kg, body weight | 1.38 ± 0.68 | 42* % | 25.1 ± 4.4 | 
2 | Nc1cccc(CN2CC[C@H](Nc3cccc4cnccc34)C2)c1 [Example 45, (3S)-N5-[1-(3-Aminobenzyl)tetrahydro-1H-3-pyrrolyl]-5-isoquinolineamine] | 310 | 74 | 779.4 ± 133.9 mg/kg, body weight | 91.2 ± 21.5 mg/kg, body weight | 2.20 ± 0.65 | 17* % | 10.2 ± 3.1 | 
3 | Nc1cccc(CN2CCC(Nc3cccc4cnccc34)C2)c1 (stereo not shown) [Example 17, N5-[1-(3-Aminobenzyl)tetrahydro-1H-3-pyrrolyl]-5-isoquinolylamine] | 280 | 94 |  |  |  |  |  | 57
4 | Clc1cccc(CN2CCCC(Nc3cccc4cnccc34)C2)c1 (stereo not shown) [Example 21, N5-[1-(3-Chlorobenzyl)-3-piperidyl]-5-isoquinolylamine] | 270 | 97 |  |  |  |  |  | 
